Patent publication US10245249B2, “Pharmaceutical compositions comprising nitroxyl donors” (Cardioxyl Pharmaceuticals, Inc., priority 2013, dated 2019)

assay: HNO production determined via N2O quantification (GC headspace analysis); assay type: physicochemical; settings: PBS, 37° C., 90 minutes incubation
From the text: Nitrous oxide (N2O) is produced via the dimerization and dehydration of HNO, and is the most common marker for nitroxyl production (Fukuto et al., Chem. Res. Toxicol. 18:790-801 (2005)). […] Using either nitrous oxide gas or Angeli's salt (AS) as a standard, the relative amounts of N2O released from compounds of the disclosure was examined via gas chromatography (GC) headspace analysis.
A procedure for determining the relative amounts of N2O released from compounds of the disclosure is as follows. GC was performed on an Agilent gas chromatograph equipped with a split injector (10:1 splitting), microelectron capture detector, and a HP-MOLSIV 30 m×0.32 mm×25 μm molecular sieve capillary column. Helium was used as the carrier (4 mL/min) gas and nitrogen was used as the make-up (20 mL/min) gas. The injector oven and the detector oven were kept at 200° C. and 325° C., respectively. All nitrous oxide analyses were performed with the column oven held at a constant temperature of 200° C.
All gas injections were made using an automated headspace analyzer. Vial pressurization was 15 psi. The analyzer's sample oven, sampling valve, and transfer line were kept at 40° C., 45° C., and 50° C., respectively. The oven stabilization, vial pressurization, loop fill, loop equilibration, and sample injection times were 1.00 min., 0.20 min., 0.20 min., 0.05 min., and 1.00 min., respectively.
All determinations used a batch of nominal 20 mL headspace vials with volumes pre-measured for sample uniformity (actual vial volume varied by <2.0% relative standard deviation (n=6)). The average vial volume for the batch was determined from six randomly-selected vials by calculating the weight difference between the capped and sealed empty (i.e., air-filled) vial and the capped and sealed deionized water-filled vial using the known density of deionized water, then averaging. Blanks were prepared by sealing and capping two vials then purging each for 20 seconds with a gentle argon stream. Nitroxyl standards were prepared by sealing and capping four vials then purging each for 1 minute with a gentle stream, from a gas cylinder, of a 3000 ppm […].
CXL-1020 (N-hydroxy-2-methanesulfonylbenzene-1-sulfonamide) “standards” were prepared by, in duplicate, accurately weighing 10±0.5 mg of CXL-1020 and adding it to each 4 mL vial. Using an auto pipette, 1 mL of argon-purged anhydrous DMF (Sigma-Aldrich) was added to each 4 mL vial to form a CXL-1020 stock solution for each sample and the vials were capped and shaken and/or sonicated to insure complete dissolution upon visual observation. Using an auto pipette, 20 mL vials were charged with 5 mL of PBS (purged for at least 30 min. with argon prior to use), purged with argon for at least 20 sec., and sealed with a rubber septum. Using a 50 μL syringe, 50 μL of the CXL-1020 stock solution was injected into each 20 mL vial containing the PBS.
Samples were prepared as follows. In duplicate, 18±1 mg of each sample was accurately weighed into each 4 mL vial. Using an auto pipette, 1 mL of argon-purged anhydrous DMF was added to each 4 mL vial to form a sample stock solution for each sample and the vials were capped and shaken and/or sonicated to insure complete sample dissolution upon visual observation. Using an auto pipette, 20 mL vials were charged with 5 mL of PBS (purged for at least 30 min. with argon prior to use), purged with argon for at least 20 sec., and sealed with a rubber septum. The vials were equilibrated for at least 10 min. at 37° C. in a dry block heater. Thereafter, using a 50 μL syringe, 50 μL of a sample stock solution was injected into each 20 mL vial containing the PBS. The vials were then held at 37° C. in the dry block heater for a time period such that the sum of the time spent in the dry block heater plus the time spent in the automated headspace analyzer oven before sample injection equaled the desired incubation time. […]

Compared with `O=S(=O)(NO)c1coc2ccccc12` [Compound 6, N-Hydroxy-1-benzofuran-3-sulfonamide], `CCS(=O)(=O)c1ccccc1S(=O)(=O)NO` [Compound 72, 2-(Ethanesulfonyl)-N-hydroxybenzene-1-sulfonamide] is higher in “Relative N2O Yield (90 minutes incubation)” value (from here on “Relative N2O Yield”): 85% for the first, 97% for the second.

Compared with `O=S(=O)(NO)c1ncccc1Br` [Compound 33, 3-Bromo-N-hydroxypyridine-2-sulfonamide], `O=S(=O)(NO)c1ccc(Br)s1` [Compound 45, 5-Bromo-N-hydroxythiophene-2-sulfonamide] is lower in “Relative N2O Yield” value: 85.5% for the first, 76% for the second.

First: NS(=O)(=O)c1cc(S(=O)(=O)NO)cs1 [Compound 34, 4-N-Hydroxythiophene-2,4-disulfonamide]
Second: O=S(=O)(NO)c1sccc1Cl [Compound 48, 3-Chloro-N-hydroxythiophene-2-sulfonamide]
The “Relative N2O Yield” value of the first is higher: 100% for the first, 82% for the second.

First: O=S(=O)(NO)c1ccc(-c2cc(C(F)(F)F)on2)s1 [Compound 36, N-Hydroxy-5-[5-(trifluoromethyl)-1,2-oxazol-3-yl]thiophene-2-sulfonamide]
Second: O=S(=O)(NO)c1ccc(-c2ccon2)s1 [Compound 44, N-Hydroxy-5-(1,2-oxazol-3-yl)thiophene-2-sulfonamide]
The “Relative N2O Yield” value of the first is lower: 51% for the first, 81% for the second.

Going from `O=S(=O)(NO)C1=C(Cl)NC2SC=CN12` (centres unmarked) [Compound 37, 6-Chloro-N-hydroxy-7H,7aH-imidazo[2,1-b][1,3]thiazole-5-sulfonamide] to `O=S(=O)(NO)c1ccc(O)cc1Cl` [Compound 62, 2-Chloro-N,4-dihydroxybenzene-1-sulfonamide], the “Relative N2O Yield” value falls from 51% to 28%.

Compared with `O=S(=O)(NO)c1ccc(-c2ccno2)s1` [Compound 38, N-Hydroxy-5-(1,2-oxazol-5-yl)thiophene-2-sulfonamide], `O=S(=O)(NO)c1ccc(-c2cnco2)s1` [Compound 40, N-Hydroxy-5-(1,3-oxazol-5-yl)thiophene-2-sulfonamide] is higher in “Relative N2O Yield” value: 25% for the first, 50% for the second.

Going from `Cc1cc(S(=O)(=O)NO)c(C)s1` [Compound 41, N-Hydroxy-2,5-dimethylthiophene-3-sulfonamide] to `Cc1cc(S(=O)(=O)NO)c(C)o1` [Compound 70, N-Hydroxy-2,5-dimethylfuran-3-sulfonamide], the “Relative N2O Yield” value falls from 13% to 6%.

First: COC(=O)c1cc(C)c(S(=O)(=O)NO)s1 [Compound 42, Methyl 5-(hydroxysulfamoyl)-4-methylthiophene-2-carboxylate]
Second: COC(=O)c1ccc(Cl)c(S(=O)(=O)NO)c1 [Compound 55, Methyl 4-chloro-3-(hydroxysulfamoyl)benzoate]
The “Relative N2O Yield” value of the first is higher: 91% for the first, 87% for the second.

First: O=S(=O)(NO)c1ccc(S(=O)(=O)c2ccccc2)s1 [Compound 43, 5-(Benzenesulfonyl)-N-hydroxythiophene-2-sulfonamide]
Second: CC(C)S(=O)(=O)c1ccccc1S(=O)(=O)NO [Compound 73, N-Hydroxy-2-(propane-2-sulfonyl)benzene-1-sulfonamide]
The “Relative N2O Yield” value of the first is lower: 82% for the first, 97% for the second.

First: O=S(=O)(NO)c1sc(Br)cc1Br [Compound 46, 3,5-Dibromo-N-hydroxythiophene-2-sulfonamide]
Second: CN1CCc2cc(Br)c(S(=O)(=O)NO)cc21 [Compound 67, 5-Bromo-N-hydroxy-1-methyl-2,3-dihydro-1H-indole-6-sulfonamide]
The “Relative N2O Yield” value of the first is higher: 95% for the first, 59% for the second.

First: O=S(=O)(NO)c1c(Cl)ccc2nonc12 [Compound 50, 5-Chloro-N-hydroxy-2,1,3-benzoxadiazole-4-sulfonamide]
Second: O=S(=O)(NO)c1cc(O)ccc1Cl [Compound 66, 2-Chloro-N,5-dihydroxybenzene-1-sulfonamide]
The “Relative N2O Yield” value of the first is lower: 31% for the first, 80% for the second.

First: COc1ccc(S(=O)(=O)NO)cc1OC [Compound 52, N-Hydroxy-3,4-dimethoxybenzene-1-sulfonamide]
Second: O=C(O)c1cc(S(=O)(=O)NO)ccc1O [Compound 60, 2-Hydroxy-5-(hydroxysulfamoyl)benzoic acid]
The “Relative N2O Yield” value of the first is higher: 11% for the first, 9% for the second.

Compared with `Cc1cc(C)c(C)c(S(=O)(=O)NO)c1C` [Compound 53, N-Hydroxy-2,3,5,6-tetramethylbenzene-1-sulfonamide], `CCOC(=O)c1coc(S(=O)(=O)NO)c1` [Compound 78, Ethyl 5-(hydroxysulfamoyl)furan-3-carboxylate] is higher in “Relative N2O Yield” value: 70% for the first, 86% for the second.

Going from `O=S(=O)(NO)c1cc(C(F)(F)F)cc(C(F)(F)F)c1` [Compound 54, N-Hydroxy-3,5-bis(trifluoromethyl)benzene-1-sulfonamide] to `CN1CCOc2cc(S(=O)(=O)NO)ccc21` [Compound 61, N-Hydroxy-4-methyl-3,4-dihydro-2H-1,4-benzoxazine-7-sulfonamide], the “Relative N2O Yield” value rises from 2% to 11%.

First: O=C(c1ccc(Cl)c(S(=O)(=O)NO)c1)N1CCC(=NO)CC1 [Compound 58, 2-Chloro-N-hydroxy-5-[4-(hydroxyimino)piperidine-1-carbonyl]benzene-1-sulfonamide]
Second: COCCN(C)C(=O)c1ccc(Cl)c(S(=O)(=O)NO)c1 [Compound 59, 4-Chloro-3-(hydroxysulfamoyl)-N-(2-methoxyethyl)-N-methylbenzamide]
The “Relative N2O Yield” value of the first is higher: 92% for the first, 82% for the second.

Going from `CN(C)C(=O)c1cc(S(=O)(=O)NO)c(Cl)cc1O` [Compound 64, 4-Chloro-2-hydroxy-5-(hydroxysulfamoyl)-N,N-dimethylbenzamide] to `CN1CCc2cc(Cl)c(S(=O)(=O)NO)cc21` [Compound 65, 5-Chloro-N-hydroxy-1-methyl-2,3-dihydro-1H-indole-6-sulfonamide], the “Relative N2O Yield” value rises from 36% to 71%.

Compared with `COCc1ccc(Cl)c(S(=O)(=O)NO)c1` [Compound 68, 2-Chloro-N-hydroxy-5-(methoxymethyl)benzene-1-sulfonamide], `COC(=O)c1ccc(S(=O)(=O)NO)o1` [Compound 69, Methyl 5-(hydroxysulfamoyl)furan-2-carboxylate] is higher in “Relative N2O Yield” value: 86% for the first, 100% for the second.

Going from `CC(=O)N1CCOc2ccc(S(=O)(=O)NO)cc21` [Compound 74, 4-Acetyl-N-hydroxy-3,4-dihydro-2H-1,4-benzoxazine-6-sulfonamide] to `COC(=O)c1ccc(S(=O)(=O)NO)n1C` [Compound 75, Methyl 5-(hydroxysulfamoyl)-1-methyl-1H-pyrrole-2-carboxylate], the “Relative N2O Yield” value falls from 17% to 4%.

First: CC(=O)Nc1ncc(S(=O)(=O)NO)s1 [Compound 76, N-[5-(Hydroxysulfamoyl)-1,3-thiazol-2-yl]acetamide]
Second: Cc1oc(C)c(S(=O)(=O)NO)c1C(=O)N1CCOCC1 [Compound 77, N-Hydroxy-2,5-dimethyl-4-(morpholine-4-carbonyl)furan-3-sulfonamide]
The “Relative N2O Yield” value of the first is higher: 76% for the first, 14% for the second.
